Assay results: patent publication US10647680B2, “Urea compound, preparation method therefor and medical use thereof” (Ancureall Pharmaceutical (Shanghai) Co., Ltd., priority 2016, dated 2020)

What was measured:
[1] = Stability test: high temperature test (60° C.); type: physicochemical; settings: exposed at 60° C. for 10 days, HPLC
Protocol: The test samples were placed into an integrated drug stability test chamber (YSEI) in an exposed way at 60° C. for 10 days. Samples were taken on the 5th and 10th days and tested according to the drug stability test indices.
(§1) An appropriate amount of test samples was taken and dissolved in acetonitrile-water (1:1), and quantitatively diluted to a solution of about 0.3 mg/ml. 20 ul of solution was injected into a liquid chromatograph (Agilent 1260 Infinity), the chromatogram was then recorded and calculated according to the percentage area method. The mobile phase was a phosphate buffer and acetonitrile aqueous solution, and then a gradient elution was carried out.

Solubility test = type: physicochemical; settings: in water at 25° C.±2° C.; listed as 89 Free base
Method in brief: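 Fine powder added to water at 25° C.±2° C., shaken vigorously 30 s every 5 min for 30 min; dissolution judged by absence of visible particles. Classed by water volume per 1 g: 1-10 ml readily soluble, 10-30 soluble, 30-100 slightly, 100-1,000 sparingly, not dissolved in 10,000 ml insoluble.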

[2] = Stability test: high humidity test (90%); type: physicochemical; settings: 25° C., relative humidity 90%±5%, 10 days, HPLC
Protocol: The test samples were placed into an integrated drug stability test chamber (YSEI) in an exposed way at 25° C. and relative humidity of 90%±5% for 10 days. Samples were taken on the 5th and 10th days and tested according to the drug stability test indices.
as §1

[3] = Stability test: intense light test (4500LX); type: physicochemical; settings: 4500LX±500LX light for 10 days, HPLC
Protocol: The test samples were placed into an integrated drug stability test chamber (YSEI) in an exposed way under 4500LX±500LX light for 10 days. Samples were taken on the 5th and 10th days and tested according to the drug stability test indices.
as §1

[4] = tested on: MV4-11 cell Bab/c nude mouse tumor model; assay: In vivo tumor growth inhibition experiment; settings: Dose 2.5 mg/kg
Protocol: Xenotransplantation in immunodeficient mice is an effective model for testing in vivo antitumor activity of compounds in animals. Bab/c immunodeficient mice are one of the most commonly used tumor cell xenografts. […] Log-phase MV4-11 cells were collected in a 50 ml of centrifuge tube (Corning), centrifuged at 1,700 rpm for 3 minutes, and the supernatant was discarded. Cells were suspended in a 50 ml 1×RPMI 1640 serum-free medium, and centrifuged, the supernatant was discarded and resuspension was performed. The cells were counted (Countess® Automated Cell Counting Apparatus, Invitrogen), prepared into […], placed on ice, and inoculated subcutaneously with 10×10^6 (0.2 ml) to the right back of 6-8-week female Bab/c nude mice (about 20 g in weight) (purchased from Shanghai Sippr-BK Experimental Animal Co., Ltd., Animal Center of Shanghai University of Traditional Chinese Medicine, approved by Ethical Committee of Shanghai University of Traditional Chinese Medicine). When the tumor grew to a size of 100-200 mm^3, animals were randomly grouped and earmarked and weighed. The treatment group consisted of 3 to 6 nude mice in each group. Drugs were prepared into different concentrations of milky suspension with a solvent PTP solution (30% polyethylene glycol 400, 0.5% Tween-80, 2.5% propylene glycol). Animals were given by oral gavage continuously at a concentration of 0.1 ml/10 g body weight, with a dose range of 0.1-200 mg/kg (the purity of the test compound of the present invention was 99% or more, and the proportion of single impurity was not more than 0.1%). In the control group, 3 to 6 nude mice in each group were given the same volume (0.1 ml/10 g body weight) of solvent PTP solution, and the tumors were measured 3 to 4 times per week. When the average tumor volume in the control group reached 1500 mm^3, or on the 28th day of administration, the experiment ended, then the tumor was weighed and subjected to molecular pathology assay.
The tumor volume was calculated as V=½a×b^2, where a is the length and b is the width. The relative tumor volume (RTV) was calculated based on the measured results and the formula was RTV=Vt/V0, where V0 is the measured tumor volume when administered in divided cages (i.e., do), and Vt is the tumor volume at each measurement.

- High temperature (60° C.) [1]: stable
- High Humidity (90%) [2]: stable
- Lighting (4500 LX) [3]: stable
SMILES: CC(C)(C)c1cc(NC(=O)Nc2ccc(-n3cnc4cc(OCCN5CCOCC5)ccc43)cc2)[nH]n1 [Compound 89, 1-(5-tert-butyl-2H-pyrazol-3-yl)-3-{4-[5-(2-morpholin-4-yl-ethoxyl)-benzimidazol-1-yl]-phenyl}-urea]
- Solubility (Solubility test): insoluble (“nearly insoluble or insoluble” means that 1 g of the test sample could not be completely dissolved in 10,000 ml of water)
- Tumor Inhibition Rate (%) ([4]; Day 6): 60.7%
- Tumor Inhibition Rate (%) ([4]; Day 10): 79.4%
- Tumor Inhibition Rate (%) ([4]; Day 15): 84.7%
- Tumor Inhibition Rate (%) ([4]; Day 20): 87.2%
